Measurements as given in patent publication US9770445B2, “Sulfoximine substituted 5-fluoro-N-(pyridin-2-yl)pyridin-2-amine derivatives and their use as CDK9 kinase inhibitors” (BAYER PHARMA AKTIENGESELLSCHAFT, priority 2013, dated 2017).

These compounds were tested on MOLM-13 human acute myeloid leukemia cells (assay: Proliferation assay, MOLM-13 (Cell Titre-Glo)). Conditions: MOLM-13, 72-hour exposure, read-out: Inhibition of MOLM-13 cell proliferation.
Assay type: cell-based
Method: Non-adherent MOLM-13 human acute myeloid leukemia cells (DSMZ ACC 554) were seeded at a density of 5,000 cells/well in a 96-well multititer plate in 100 μL of growth medium supplemented 10% fetal calf serum. After 24 hours, cell viability of one plate (zero-point plate) was determined with the Cell Titre-Glo Luminescent Cell Viability Assay (Promega), while 50 μL of test compound containing medium was added to the wells of the other plates (final concentrations in the range of 0.001-10 μM and DMSO controls; the final concentration of the solvent dimethyl sulfoxide was 0.5%). Cell viability was assessed after 72-hour exposure with the Cell Titre-Glo Luminescent Cell Viability Assay (Promega). IC50 values (inhibitory concentration at 50% of maximal effect) were determined by means of a 4 parameter fit on measurement data which were normalized to vehicle (DMSO) treated cells (=100%) and measurement readings taken immediately before compound exposure (=0%).

| Structure (SMILES) | IC50 |
| --- | --- |
| CS(=N)(=O)Cc1cc(F)nc(Nc2cc(-c3ccc(F)c4ccoc34)c(F)cn2)c1 (racemic) [Example 1, (rac)-5-Fluoro-4-(4-fluoro-1-benzofuran-7-yl)-N-{6-fluoro-4-[(S-methylsulfonimidoyl)methyl]pyridin-2-yl}pyridin-2-amine] | 16 nM |
| CS(=N)(=O)Cc1ccnc(Nc2cc(-c3ccc(F)c4ccoc34)c(F)cn2)c1 (racemic) [Example 5, (rac)-5-Fluoro-4-(4-fluoro-1-benzofuran-7-yl)-N-{4-[(S-methylsulfonimidoyl)methyl]pyridin-2-yl}pyridin-2-amine] | 18 nM |

Now those with a lower IC50, led by results:

| IC50 | Structure (SMILES) |
| --- | --- |
| 3.9 nM | CCc1cc(CS(C)(=N)=O)cc(Nc2cc(-c3ccc(F)c4ccoc34)c(F)cn2)n1 (racemic) [Example 8, (rac)-N-{6-Ethyl-4-[(S-methylsulfonimidoyl)methyl]pyridin-2-yl}-5-fluoro-4-(4-fluoro-1-benzofuran-7-yl)pyridin-2-amine] |
| 6.3 nM | Cc1cc(CS(C)(=N)=O)cc(Nc2cc(-c3ccc(F)c4ccoc34)c(F)cn2)n1 (racemic) [Example 7, (rac)-5-Fluoro-4-(4-fluoro-1-benzofuran-7-yl)-N-{6-methyl-4-[(S-methylsulfonimidoyl)-methyl]pyridin-2-yl}pyridin-2-amine] |
| 6 nM | CS(=N)(=O)Cc1cc(Nc2cc(-c3ccc(F)c4ccoc34)c(F)cn2)nc(C(F)(F)F)c1 (racemic) [Example 3, (rac)-5-Fluoro-4-(4-fluoro-1-benzofuran-7-yl)-N-{4-[(S-methylsulfonimidoyl)methyl]-6-(trifluoromethyl)pyridin-2-yl}pyridin-2-amine] |
